In publication PMC9788040, “Molecular Diversity of Linear Peptides Revealed by Transcriptomic Analysis of the Venom Gland of the Spider Lycosa poonaensis” (Toxins, 2022):
pEC50: −log10 of the molar value. Where no end group is shown, it is not given here.

How the values were obtained:
[1] = test system: Escherichia coli NBRC 3972; assay: Antibacterial activity, liquid growth inhibition assay; type: cell-based; details: E. coli NBRC 3972, LB medium, overnight 37 °C, A595; MIC as interval [a]–[b]; at least three experiments in duplicate
Description: (§1) Antibacterial activity was measured using the Gram-negative bacteria Escherichia coli NBRC 3972 and the Gram-positive bacteria Staphylococcus aureus NBRC 13276 and Bacillus subtilis NBRC 3009 (NITE Biological Resource Center, Chiba, Japan), using a liquid growth inhibition assay. Each bacteria strain was grown in a liquid LB medium (1% tryptone, 0.5% yeast extract, and 1% NaCl). Aliquots of each sample (10 µL) were incubated with 90 µL of a suspension of a mid-logarithmic phase culture of bacteria in a 96-well plate at a starting absorbance of A595 = 0.001 in the LB medium; the incubation occurred overnight at 37 °C with continuous shaking. Growth inhibition was monitored by measuring the absorbance at 595 nm using a Benchmark microplate reader (Bio-Rad, Hercules, CA, USA). Experiments were repeated at least three times, each time in duplicate. Minimal inhibitory concentrations (MICs) are expressed as the interval of concentrations [a]–[b], where [a] is the highest concentration at which bacteria still grow and [b] is the lowest concentration causing growth inhibition.

[2] = test system: Staphylococcus aureus NBRC 13276; assay: as above; type: cell-based; details: S. aureus NBRC 13276, LB medium, overnight 37 °C, A595; MIC as interval [a]–[b]; at least three experiments in duplicate
Description: as §1

[3] = test system: Bacillus subtilis NBRC 3009; assay: as above; type: cell-based; details: B. subtilis NBRC 3009, LB medium, overnight 37 °C, A595; MIC as interval [a]–[b]; at least three experiments in duplicate
Description: as §1

[4] = Secondary structure estimation by CD spectroscopy (DichroWeb); type: physicochemical; details: 25 °C, DichroWeb CDSSTR, reference dataset 4
Description: CD spectra were recorded on a J-820 spectropolarimeter (Jasco, Tokyo, Japan). The spectra were measured between 190–260 nm (in 0.2-nm steps) at 25 °C with a 1-mm-pathlength cell. Samples were dissolved in a 0.2 M phosphate buffer (pH 7.0) or 50% TFE in a 0.2 M phosphate buffer (pH 7.0) at a concentration of 10 µM. Five scans were averaged for each sample. The percentages of secondary structures were estimated from the spectra using the DichroWeb server. The helical wheel projection was performed using the online software HeliQuest (https://heliquest.ipmc.cnrs.fr, accessed on 14 July 2022).

[5] = test system: crickets (Acheta domesticus); assay: Insect toxicity (paralysis after injection); type: in vivo; details: injection into abdominal region, paralysis counted 30 min after injection, 10 insects per measurement, parentheses = 95% confidence intervals
Description: Insect toxicity was tested on crickets (Acheta domesticus, 50 ± 5 mg body weight) by injecting 1–2 µL of each sample dissolved in distilled water into their abdominal region. Distilled water was injected as a control. For each measurement, 10 insects were used, and the number of paralyzed insects was counted 30 min after injection. The doses required to induce paralysis in half of the test animals (PD50) were determined using the statistical software PRISM (GraphPad Software, La Jolla, CA, USA).

[6] = test system: sheep red blood cells (sRBCs); assay: Hemolytic activity; type: cell-based; details: sheep RBC 4% (v/v) in PBS pH 7.2, 1 h 37 °C, absorbance 450 nm; 3 experiments in triplicate; read-out: Hemolysis EC50
Description: Fresh sheep red blood cells (sRBCs) were washed three times with PBS (35 mM phosphate buffer and 150 mM NaCl, pH 7.2) through centrifugation at 2000× g for 5 min and resuspended in PBS. Specifically, aliquots of each sample in PBS (50 μL) were added to 50 μL of sRBC suspension [4% (v/v) in the final] in a microtube and incubated for 1 h at 37 °C; then, the samples were centrifuged at 2000× g for 5 min. The supernatant was transferred to a 96-well plate to monitor hemoglobin release, which was done by measuring the absorbance of the supernatant at 450 nm using a Benchmark microplate reader. PBS and 0.1% Triton X-100 were used as the negative and positive controls, respectively. The experiments were repeated 3 times, each time in triplicate. In the equation to calculate the hemolysis rate, AP refers to peptide sample absorbance, AT refers to 0.1% Triton X-100 positive control absorbance, and A0 refers to PBS sample negative control absorbance. Hemolysis rate (%)=Ap−A0/AT−A0×100

[7] = solvent I: 0.2 M phosphate buffer pH 7.0, 10 µM
[8] = solvent II: 50% TFE in 0.2 M phosphate buffer pH 7.0, 10 µM

## AGLGKIGALIKKAYAIYKAKAA-NH2 [M-lycotoxin-Lp5b]
[1]
  Antibacterial Activity MIC, E. coli: 1.25 to 2.5 µM
[2]
  Antibacterial Activity MIC, S. aureus: 50 to 100 µM
[3]
  Antibacterial Activity MIC, B. subtilis: 1.25 to 2.5 µM
[4]; [7]
  Percentage of Secondary Structure, Turns: 25%
  Percentage of Secondary Structure, Unordered: 34%
  Percentage of Secondary Structure, α-Helix: 7%
  Percentage of Secondary Structure, β-Sheet: 33%
[4]; [8]
  Percentage of Secondary Structure, Turns: 11%
  Percentage of Secondary Structure, Unordered: 23%
  Percentage of Secondary Structure, α-Helix: 51%
  Percentage of Secondary Structure, β-Sheet: 14%
[5]
  Insect Toxicity PD50: 44 (12.2–160) µg/g Weight
[6]
  pEC50: < 4.00

## VIWLPALKFLASHIAMEQLSKL-NH2 [M-lycotoxin-Lp1b]
[1]
  Antibacterial Activity MIC, E. coli: 50 to 100 µM
[2]
  Antibacterial Activity MIC, S. aureus: 3.1 to 6.2 µM
[3]
  Antibacterial Activity MIC, B. subtilis: 6.2 to 12.5 µM
[6]
  pEC50: < 4.00

## KIKWFKAMKSIAKYVAKKQLKKHLGGEN [M-lycotoxin-Lp4]
[4]; [7]
  Percentage of Secondary Structure, Turns: 26%
  Percentage of Secondary Structure, Unordered: 33%
  Percentage of Secondary Structure, α-Helix: 8%
  Percentage of Secondary Structure, β-Sheet: 33%
[4]; [8]
  Percentage of Secondary Structure, Turns: 13%
  Percentage of Secondary Structure, Unordered: 23%
  Percentage of Secondary Structure, α-Helix: 51%
  Percentage of Secondary Structure, β-Sheet: 11%
[5]
  Insect Toxicity PD50: 10 (5.8–17.1) µg/g Weight

## MVWLLPLKFLASHVAMEQLSKLGSKIATKL-NH2 [M-lycotoxin-Lp1a]
[1]
  Antibacterial Activity MIC, E. coli: 6.2 to 12.5 µM
[2]
  Antibacterial Activity MIC, S. aureus: 12.5 to 25 µM
[3]
  Antibacterial Activity MIC, B. subtilis: 12.5 to 25 µM
[6]
  pEC50: < 4.00

## IWLTALKFIGKNLGKHFAKQQLSKL-NH2 [M-lycotoxin-Lp3a]
[1]
  Antibacterial Activity MIC, E. coli: 0.8 to 1.6 µM
[2]
  Antibacterial Activity MIC, S. aureus: 0.4 to 0.8 µM
[3]
  Antibacterial Activity MIC, B. subtilis: 0.8 to 1.6 µM
[6]
  pEC50: < 4.00

## SKWKAFLAKMKEIASEAL-NH2 [M-lycotoxin-Lp6]
[1]
  Antibacterial Activity MIC, E. coli: 5 to 12.5 µM
[2]
  Antibacterial Activity MIC, S. aureus: >100 µM
[3]
  Antibacterial Activity MIC, B. subtilis: 5 to 12.5 µM
[6]
  pEC50: < 4.00

## AGLGKIGAFIKKAYAIYKAKAA-NH2 [M-lycotoxin-Lp5a]
[1]
  Antibacterial Activity MIC, E. coli: 1.25 to 2.5 µM
[2]
  Antibacterial Activity MIC, S. aureus: 50 to 100 µM
[3]
  Antibacterial Activity MIC, B. subtilis: 1.25 to 2.5 µM
[4]; [7]
  Percentage of Secondary Structure, Turns: 28%
  Percentage of Secondary Structure, Unordered: 33%
  Percentage of Secondary Structure, α-Helix: 15%
  Percentage of Secondary Structure, β-Sheet: 23%
[4]; [8]
  Percentage of Secondary Structure, Turns: 10%
  Percentage of Secondary Structure, Unordered: 18%
  Percentage of Secondary Structure, α-Helix: 55%
  Percentage of Secondary Structure, β-Sheet: 17%
[5]
  Insect Toxicity PD50: 50 (18.3–138) µg/g Weight
[6]
  pEC50: < 4.00
